The values below are quoted from earlier work in patent publication US9512402B2, “Compositions for the preparation of mature dendritic cells” (Helmholtz Zentrum Munchen Deutsches Forschungszentrum fur …, priority 2006, dated 2016).

This data set has as its system mature DCs. To be noted: DCs matured only with IFNα; Frankenberger 2005.

For the substance IFNα, the “EGFP protein expression following RNA transfer” value was “failed to express EGFP protein”.
